PubChem BioAssay AID1963836 (Molecular Pharmacology Branch, DTP, NCI, 2024)

System: 857933-349-R-J2-PDC complex spheroid viability
Experiment: Anticancer human tumor 857933-349-R-J2-PDC patient-derived colon adenocarcinoma cell line growth inhibition [POLQ]
Conditions: for IC50: curve of first compound; for viability, T/C: stronger effect = lower value; active = viability on the fitted dose curve at most 10% of control; inactive = the rest
Protocol: Multicellular complex tumor spheroid response to Polymerase (POL) inhibitors (novobiocin, ART-558, RP6685) in combination with a variety of drugs and investigational agents in selected tumor cell lines
The POL inhibitors (novobiocin, ART-558, and RP6685) were evaluated both individually and in combination with standard of care and investigational anticancer small molecules within a complex spheroid model of solid tumors. . Complex spheroids include a stromal component modeled by human endothelial cells (HUVEC) and fibroblasts modeled by human mesenchymal stem cells (MSCs). The concentration ranges selected for each drug and investigational agent were based upon clinically achievable concentrations if the clinical Cmax of the agent was known.
Compounds. The drugs and investigational agents: novobiocin (NSC847541), ART-558 (NSC835418), RP-6685 (NSC848927), peposertib (NSC802822), ceralasertib (NSC780249), elimusertib (NSC800525), camonsertib (NSC841442), AZD-1390 (NSC803789), olaparib (NSC753686), talazoparib (NSC767125), rucaparib (NSC756644), sotorasib (NSC818433), MRTX-1133 (NSC836407), SN-38 (NSC673596), topotecan (NSC609699), epotoside (NSC141540), doxorubicin (NSC123127), gemcitabine (NSC613327), 5-fluorouracil (NSC19893), paclitaxel (NSC125973), vemurafenib (NSC761431), MSA-2 (NSC828583), SN-011 (NSC837082), adavosertib (NSC754352), prexasertib (NSC758257), carboplatin (NSC241240) and oxaliplatin (NSC266046), were obtained from the National Cancer Institute (NCI) Developmental Therapeutics Program Chemical Repository (21). The FDA-approved anticancer drug set is available from the Developmental Therapeutics Program at https://dtp.cancer.gov/organization/dscb/obtaining/. […] The stock solutions were prepared in dimethyl sulfoxide (DMSO, Sigma-Aldrich, St. Louis, MO, cat. D2650), except for the platinum compounds which were prepared in saline (Quality Biological, Gaithersburg, MD, cat. 114-055-101), at 800-fold the tested concentration and stored at -70 degrees C prior to their use. All drugs and investigational agents were tested over a range starting from a high concentration at or near the clinical Cmax and decreasing in half-log increments. If the clinical Cmax for an agent had not been determined, the highest concentration tested was 10 microM, except for SN-38, which was tested at a high concentration of 1 microM.
Cell Culture. All cells were maintained in an incubator at 37 degrees C and 5% CO2 with 95% humidity. The PDC lines were cultured according to standard operating procedures established by the NCI PDMR (https://pdmr.cancer.gov). Table 3 of the manuscript, lists the cell lines along with the number of the three cell types plated to form the mct-spheroids and media for tumor cell growth. After thawing, all PDC lines, except 997537-175-T-J1-PDC and 415267-285-R-J2-PDC, were cultured in Matrigel-coated flasks prepared with a working solution of 1X Ham's F-12 nutrient mix, without supplementation (Thermo Fisher Scientific, cat. 11765054), 100 U/mL penicillin-streptomycin (Thermo Fisher Scientific, cat. 15140122), and 2.5% Matrigel (Corning Inc., Corning, NY, cat. 354248) for the first three passages. The two PDC lines 997537-175-T-J1-PDC and 415267-285-R-J2-PDC were cultured on uncoated flasks. The 857933-349-R-J2-PDC line was cultured in 6C/Colon 1B media containing advanced DMEM/F-12 (Thermo Fisher Scientific, cat. 12634028), 10 mM HEPES (Thermo Fisher Scientific, cat. 15630080), 1X GlutaMAX supplement (Thermo Fisher Scientific, cat. 35050061), 0.1 mg/mL primocin (InvivoGen, San Diego, CA, cat. ant-pm-2), 10% defined fetal bovine serum, heat inactivated (HyClone Laboratories Inc., Logan, UT, cat. SH30070.03HI), 50% L-WRN conditioned media (ATCC, cat. CRL-3276), 1.25 mM N-Acetyl-L-cysteine (Sigma-Aldrich, cat. A9165), 10 mM nicotinamide (Sigma-Aldrich, cat. N0636), 1X B-27 supplement (Thermo Fisher Scientific, cat. 17504044), 1X N-2 supplement (Thermo Fisher Scientific, cat. […]

[1] = second compound 0.0316 µM, first compound 0.0316 µM
[2] = second compound 0.0316 µM, first compound 0.1 µM
[3] = second compound 0.0316 µM, first compound 0.316 µM
[4] = second compound 0.0316 µM, first compound 1 µM
[5] = second compound 0.0316 µM, first compound 3.16 µM
[6] = second compound 0.0316 µM, first compound 10 µM
[7] = second compound 0.1 µM, first compound 0.0316 µM
[8] = second compound 0.1 µM, first compound 0.1 µM
[9] = second compound 0.1 µM, first compound 0.316 µM
[10] = second compound 0.1 µM, first compound 1 µM
[11] = second compound 0.1 µM, first compound 3.16 µM
[12] = second compound 0.1 µM, first compound 10 µM
[13] = second compound 0.316 µM, first compound 0.0316 µM
[14] = second compound 0.316 µM, first compound 0.1 µM
[15] = second compound 0.316 µM, first compound 0.316 µM
[16] = second compound 0.316 µM, first compound 1 µM
[17] = second compound 0.316 µM, first compound 3.16 µM
[18] = second compound 0.316 µM, first compound 10 µM
[19] = second compound 1 µM, first compound 0.0316 µM
[20] = second compound 1 µM, first compound 0.1 µM
[21] = second compound 1 µM, first compound 0.316 µM
[22] = second compound 1 µM, first compound 1 µM
[23] = second compound 1 µM, first compound 3.16 µM
[24] = second compound 1 µM, first compound 10 µM
[25] = second compound 3.16 µM, first compound 0.0316 µM
[26] = second compound 3.16 µM, first compound 0.1 µM
[27] = second compound 3.16 µM, first compound 0.316 µM
[28] = second compound 3.16 µM, first compound 1 µM
[29] = second compound 3.16 µM, first compound 3.16 µM
[30] = second compound 3.16 µM, first compound 10 µM
[31] = second compound 10 µM, first compound 0.0316 µM
[32] = second compound 10 µM, first compound 0.1 µM
[33] = second compound 10 µM, first compound 0.316 µM
[34] = second compound 10 µM, first compound 1 µM
[35] = second compound 10 µM, first compound 3.16 µM
[36] = second compound 10 µM, first compound 10 µM
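Also: spheroids exposed to compounds for seven days before readout.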

CC1COCCN1c1cc(C2(O)CC3CCC(C2)O3)c2cnn(-c3ccn[nH]3)c2n1 (centres undefined) + Cc1cccc(N(C)C(=O)C2C(O)CCN2c2nc(C)cc(C(F)(F)F)c2C#N)c1
202 nM: IC50 (second compound 1 µM)
247 nM: IC50 (second compound 0.0316 µM)
365 nM: IC50 (second compound 0.1 µM)
231 nM: IC50 (second compound 10 µM)
inactive: viability, T/C [1] 73.2% | viability, T/C [2] 56.1% | viability, T/C [3] 50.3% | viability, T/C [4] 41.7% | viability, T/C [5] 42.7% | viability, T/C [6] 43.6% | viability, T/C [7] 60.5% | viability, T/C [8] 62.9% | viability, T/C [9] 50.1% | viability, T/C [10] 38.3% | viability, T/C [11] 50.1% | viability, T/C [12] 59.1% | viability, T/C [13] 76.4% | viability, T/C [14] 69.9% | viability, T/C [15] 48.4% | viability, T/C [16] 45.9% | viability, T/C [17] 41.3% | viability, T/C [18] 48.7% | viability, T/C [19] 67.1% | viability, T/C [20] 59.5% | viability, T/C [21] 38.4% | viability, T/C [22] 43.4% | viability, T/C [23] 46.6% | viability, T/C [24] 47.5% | viability, T/C [25] 60.5% | viability, T/C [26] 62.5% | viability, T/C [27] 47.6% | viability, T/C [28] 41.1% | viability, T/C [29] 54.4% | viability, T/C [30] 49.3% | viability, T/C [31] 56.3% | viability, T/C [32] 55.9% | viability, T/C [33] 50.5% | viability, T/C [34] 36.9% | viability, T/C [35] 51.7% | viability, T/C [36] 40.1%
291 nM: IC50 (second compound 0.316 µM)
268 nM: IC50 (second compound 3.16 µM)

CCc1cc2c(N3CCc4c(cc(Cn5ccnc5)cc4-c4cn(C)nc4C(F)(F)F)C3=O)cc(C)nc2c(OC)n1 + Cc1cccc(N(C)C(=O)C2C(O)CCN2c2nc(C)cc(C(F)(F)F)c2C#N)c1
> 10000 nM: IC50 (second compound 0.0316 µM) | IC50 (second compound 0.1 µM) | IC50 (second compound 0.316 µM) | IC50 (second compound 1 µM) | IC50 (second compound 3.16 µM) | IC50 (second compound 10 µM)
inactive: viability, T/C [1] 106% | viability, T/C [2] 93.2% | viability, T/C [3] 99% | viability, T/C [4] 79.9% | viability, T/C [5] 75.1% | viability, T/C [6] 62.3% | viability, T/C [7] 106% | viability, T/C [8] 103% | viability, T/C [9] 78.5% | viability, T/C [10] 82% | viability, T/C [11] 77.6% | viability, T/C [12] 68.8% | viability, T/C [13] 100% | viability, T/C [14] 89.6% | viability, T/C [15] 83.5% | viability, T/C [16] 82.8% | viability, T/C [17] 80.3% | viability, T/C [18] 61.6% | viability, T/C [19] 99.6% | viability, T/C [20] 83% | viability, T/C [21] 86.3% | viability, T/C [22] 85.2% | viability, T/C [23] 73.8% | viability, T/C [24] 61.9% | viability, T/C [25] 107% | viability, T/C [26] 91.3% | viability, T/C [27] 82.7% | viability, T/C [28] 77.8% | viability, T/C [29] 60.2% | viability, T/C [30] 55.1% | viability, T/C [31] 95.4% | viability, T/C [32] 99.9% | viability, T/C [33] 92.5% | viability, T/C [34] 72.6% | viability, T/C [35] 67.6% | viability, T/C [36] 62.8%
